# Laboratory results taken from paper PMC8839448, “Novel Pyridothienopyrimidine Derivatives: Design, Synthesis and Biological Evaluation as Antimicrobial and Anticancer Agents” (Molecules, 2022).
# Legend:
# [1] = tested on: Salmonella typhimurium 14028; experiment: In vitro antibacterial activity, MIC by broth dilution; format: cell-based; conditions: Salmonella enterica, Gram −ve bacteria, read-out: MIC S. typhimurium
# five bacterial strains = experiment: Antibacterial MIC, range over the panel; format: cell-based
# [2] = tested on: Staphylococcus aureus 25923; experiment: In vitro antibacterial activity, MIC by broth dilution; format: cell-based; conditions: Gram +ve bacteria, read-out: MIC S. aureus
# Bacillus subtilis 6633 = experiment: as above; format: cell-based; conditions: Gram +ve bacteria, read-out: MIC B. subtilis
# Candida tropicals 750 = experiment: In vitro antifungal activity, MIC by broth dilution; format: cell-based; conditions: yeast, read-out: MIC C. tropicals
# [3] = tested on: breast cancer (MCF-7) cells; experiment: Cytotoxicity, MTT assay; format: cell-based, human; conditions: Homo sapiens, MCF7, MCF7 cells, read-out: Cytotoxic activity IC50 MCF7
# Candida albicans 10231 = experiment: In vitro antifungal activity, MIC by broth dilution; format: cell-based; conditions: yeast, read-out: MIC C. albicans
# Aspergillus flavus = experiment: as above; format: cell-based; conditions: fungi
# [4] = tested on: Aspergillus niger EM77 (KF774181); experiment: as above; format: cell-based; conditions: fungi
# [5] = tested on: hepatocellular carcinoma (HepG2) cells; experiment: Cytotoxicity, MTT assay; format: cell-based; conditions: Homo sapiens, read-out: Cytotoxic activity IC50 HepG2
# [6] = tested on: Saccharomycese cerevisiae; experiment: In vitro antifungal activity, MIC by broth dilution; format: cell-based; conditions: Saccharomyces cerevisiae, yeast, read-out: MIC S. cerevisiae
# Escherichia coli 8739 = experiment: In vitro antibacterial activity, MIC by broth dilution; format: cell-based; conditions: Gram −ve bacteria
# Bacillus cereus 33018 = experiment: as above; format: cell-based; conditions: Gram +ve bacteria, read-out: MIC B. cereus
# [7] = tested on: all the tested yeasts and fungi strains; experiment: Antifungal MIC, range over the panel; format: cell-based
Structure (SMILES),MIC [1] [µg/mL],MIC range against the tested bacterial strains (five bacterial strains) [µg/mL],MIC [2] [µg/mL],MIC (Bacillus subtilis 6633) [µg/mL],melting point [°C],MIC (Candida tropicals 750) [µg/mL],IC50 [3] [µM],MIC (Candida albicans 10231) [µg/mL],MIC (Aspergillus flavus) [µg/mL],MIC [4] [µg/mL],IC50 [5] [µM],MIC [6] [µg/mL],MIC (Escherichia coli 8739) [µg/mL],MIC (Bacillus cereus 33018) [µg/mL],MIC range against the tested yeasts and fungi strains [7] [µg/mL]
"Cc1ccc(-c2cc(-c3ccccc3)nc3sc4c(c23)NC2(CCCCC2)NC4=O)cc1 [Compound 6d, 7′-Phenyl-9′-(p-tolyl)-1′H-spiro[cyclohexane-1,2′-pyrido[3′,2′:4,5]thieno[3,2-d]pyrimidin]-4′(3′H)-one]",32,8 to 32,8,32,263,64,21.7 ± 0.7,64,32,16,4.45 ± 0.22,32,32,8,–
"Cc1ccc(-c2cc(-c3ccccc3)nc3sc4c(c23)NC2(CCCC2)NC4=S)cc1 [Compound 7b, 7′-Phenyl-9′-(p-tolyl)-1′H-spiro[cyclopentane-1,2′-pyrido[3′,2′:4,5]thieno[3,2-d]pyrimidine]-4′(3′H)-thione]",128,64 to 128,64,64,–,64,41.6 ± 2.2,64,64,128,39.7 ± 1.89,32,64,64,–
"Cc1cc(C)c2c3c(sc2n1)C(=S)NC1(CCCCC1)N3 [Compound 7c, 7′,9′-Dimethyl-1′H-spiro[cyclohexane-1,2′-pyrido[3′,2′:4,5]thieno[3,2-d]pyrimidine]-4′(3′H)-thione]",32,–,32,32,201,8,20.9 ± 0.93,16,4,16,10.3 ± 0.31,8,32,8,4 to 16
"Cc1ccc(-c2cc(-c3ccccc3)nc3sc4c(=O)[nH]c(CCl)nc4c23)cc1 [Compound 4b, 2-(Chloromethyl)-7-phenyl-9-(p-tolyl)pyrido[3′,2′:4,5]thieno[3,2-d]pyrimidin-4(3H)-one]",128,–,8,128,310,16,43.3 ± 2.28,8,16,16,36.5 ± 1.82,8,128,16,4 to 16
"Cc1cc(C)c2c3c(sc2n1)C(SCC(N)=O)=NC1(CCCCC1)N3 [Compound 8a, 2-((7′,9′-Dimethyl-1′H-spiro[cyclohexane-1,2′-pyrido[3′,2′:4,5]thieno[3,2-d]pyrimidin]-4′-yl)sulfanyl)acetamide]",32,8 to 32,8,16,160 to 161,16,20.9 ± 1.46,64,16,16,6.78 ± 0.73,16,32,8,–
"Cc1ccc(-c2cc(-c3ccccc3)nc3sc4c(c23)NC2(CCCCC2)NC4=S)cc1 [Compound 7d, 7′-Phenyl-9′-(p-tolyl)-1′H-spiro[cyclohexane-1,2′-pyrido[3′,2′:4,5]thieno[3,2-d]pyrimidine]-4′(3′H)-thione]",32,–,4,64,178 to 179,64,26.6 ± 1.62,32,64,64,23.2 ± 0.35,32,32,64,–
"Cc1ccc(-c2cc(-c3ccccc3)nc3sc4c(=O)[nH]c(CN5CCN(C)CC5)nc4c23)cc1 [Compound 5b, 2-((4-Methylpiperazin-1-yl)methyl)-7-phenyl-9-(p-tolyl)pyrido[3′,2′:4,5]thieno[3,2-d]pyrimidin-4(3H)-one]",32,–,8,8,260 to 261,16,21.1 ± 1.16,64,32,64,10.2 ± 0.29,16,32,16,–
"Cc1ccc(-c2cc(-c3ccccc3)nc3sc4c(Cl)nc(Cl)nc4c23)cc1 [Compound 3b, 2,4-Dichloro-7-phenyl-9-(p-tolyl)pyrido[3′,2′:4,5]thieno[3,2-d]pyrimidine]",32,–,32,8,220,16,24.7 ± 1.32,32,32,16,11.3 ± 0.65,64,16,32,–
"Cc1cc(C)c2c(n1)sc1c(=O)[nH]c(=O)[nH]c12 [Compound 2a, 7,9-Dimethylpyrido[3′,2′:4,5]thieno[3,2-d]pyrimidine-2,4(1H,3H)-dione]",> 128,–,> 128,> 128,–,128,64.3 ± 2.91,128,> 128,> 128,56.6 ± 3.64,16,> 128,64,–
"Cc1ccc(-c2cc(-c3ccccc3)nc3sc4c(=O)[nH]c(=O)[nH]c4c23)cc1 [Compound 2b, 7-Phenyl-9-(p-tolyl)pyrido[3′,2′:4,5]thieno[3,2-d]pyrimidine-2,4(1H,3H)-dione]",64,–,64,128,316 to 317,32,42.4 ± 2.24,64,32,32,33.2 ± 1.79,32,128,64,–
"Cc1cc(C)c2c3c(sc2n1)C(=S)NC1(CCCC1)N3 [Compound 7a, 7′,9′-Dimethyl-1′H-spiro[cyclopentane-1,2′-pyrido[3′,2′:4,5]thieno[3,2-d]pyrimidine]-4′(3′H)-thione]",16,–,4,> 128,–,16,28.1 ± 0.92,16,16,16,26.1 ± 1.89,8,8,8,4 to 16
